Columns and labels:
[1] = system: E. coli; experiment: Antibacterial action compared with glutaraldehyde in 96-well microplates; type: cell-based; conditions: for bacterial growth (optical density, 600-nm wavelength): E. coli, 37° C., 24 hours
[2] = system: E. coli; experiment: Disinfection of an artificially contaminated fibroscope; conditions: fibroscope contaminated with E. coli, disinfectant at (1/10)
[3] = system: rot of clementines; experiment: Tracking of the rot rate of clementines in a packing station; type: in vivo, clementines (Afourar variety)
[4] = system: rot of clementines; experiment: Drenching and waxing of non-infected, experimentally damaged clementines; type: in vivo, clementines (Afourar variety); conditions: washed then waxed, 27° C.
[5] = system: Penicillium digitatum; experiment: Drenching and waxing of clementines infected by injection of spores; type: in vivo, clementines (Afourar variety); conditions: fruits waxed only (batches 3 and 4)

O=CCCCC=O [Glutaraldehyde, glutaraldehyde]
inhibiting minimal concentration (CMI) ([1]; E. coli suspension on the order of 10^8 UFC/ml, expressed as dilution): obtained only with the pure disinfectant | bacterial growth (optical density, 600-nm wavelength) ([1]; concentration 1): 0 | bacterial growth (optical density, 600-nm wavelength) ([1]; concentration 1/10): 0.13 ± 0.002 | bacterial growth (optical density, 600-nm wavelength) ([1]; concentration 1/100): 0.15 ± 0.002 | bacterial growth (optical density, 600-nm wavelength) ([1]; concentration 1/250): 0.17 ± 0.003 | bacterial growth (optical density, 600-nm wavelength) ([1]; concentration 1/500): 0.20 ± 0.002 | bacterial growth (optical density, 600-nm wavelength) ([1]; concentration 1/750): 0.20 ± 0.002 | bacterial growth (optical density, 600-nm wavelength) ([1]; concentration 1/1,000): 0.22 ± 0.012 | bacterial growth (optical density, 600-nm wavelength) ([1]; concentration 1/2,000): 0.28 ± 0.035 | bacterial growth (optical density, 600-nm wavelength) ([1]; concentration 1/4,000): 0.34 ± 0.007 | bacterial growth (optical density, 600-nm wavelength) ([1]; concentration 1/8,000): 0.47 ± 0.034 | bacterial growth (optical density, 600-nm wavelength) ([1]; concentration 1/16,000): 0.50 ± 0.005 | bacterial load After Disinfection [2]: Layers | bacterial load After Disinfection ([2]; listed as glutaraldehyde): layer of bacteria

C=CCOC(Cn1ccnc1)c1ccc(Cl)cc1Cl (stereo not shown) [imazalil]
Percentage of Rotten Fruits ([3]; Storage at 8° C., Week 1): 2.63% | Percentage of Rotten Fruits ([3]; Storage at 8° C., Week 2): 1.35% | Percentage of Rotten Fruits ([3]; Storage at 8° C., Week 3): 2.16% | Percentage of Rotten Fruits ([3]; Storage at 8° C., Week 4): 4.67% | Percentage of Rotten Fruits ([3]; Storage at 25° C., Week 1): 7.78% | Percentage of Rotten Fruits ([3]; Storage at 25° C., Week 2): 6.91% | Percentage of Rotten Fruits ([3]; Storage at 25° C., Week 3): 9.68% | Percentage of Rotten Fruits ([3]; Storage at 25° C., Week 4): 8.43% | Percentage of the Rotten Surface on the Fruits ([4]; 4 D): 0% | Percentage of the Rotten Surface on the Fruits ([4]; 6 D): 7% | Percentage of the Rotten Surface on the Fruits ([4]; 8 D): 11% | Percentage of the Rotten Surface on the Fruits ([4]; 10 D): 17% | Percentage of the Rotten Surface on the Fruits ([4]; 12 D): 29% | Percentage of the Rotten Surface on the Fruits ([4]; 14 D): 38% | Percentage of the Rotten Surface on the Fruits ([4]; 16 D): 44% | day after infection on which rot begins ([5]; P. digitatum injected, 20° C.): starting from the fourth day | diameter of the rot ([5]; after 7 days): 2.55 cm
